Results as given in ChEMBL document CHEMBL5715954, “Silencing c-Myc translation as a therapeutic strategy through targeting PI3Kδ and CK1ε in hematological malignancies” (Blood, 2017).
Active and inactive are the calls of the source. No cut-off for these calls is given here.

How the values were obtained:
[1] = target: T1, mTORC1 (Homo sapiens) (UniProt P42345+Q8N122+Q9BVC4); assay: Inhibition of mTORC1 in human CLL cells assessed as reduction in c-Myc expression at 5 uM measured after 24 hrs in presence of bortezomib by Western blot analysis; assay type: cell-based; details: CLL cell
[2] = target: T1, mTORC1 (Homo sapiens); assay: Inhibition of mTORC1 in human PF-382 cells assessed as reduction in 4E-BP1 phosphorylation at 5 uM measured after 24 hrs in presence of bortezomib by Western blot analysis; assay type: cell-based
[3] = target: T1, mTORC1 (Homo sapiens); assay: Inhibition of mTORC1 in human LY7 cells assessed as reduction in 4E-BP1 phosphorylation at 3 uM measured after 24 hrs in presence of bortezomib by Western blot analysis; assay type: cell-based
[4] = tested on: LY7; assay: Induction of apoptosis in human LY7 cells assessed as increase in cleaved-PARP expression at 3 uM measured after 24 hrs in presence of bortezomib by Western blot analysis; assay type: functional, cell-based
[5] = target: Myc proto-oncogene protein (Homo sapiens) (UniProt P01106); assay: Inhibition of c-Myc in human LY10 cells assessed as reduction in eIF4B expression at 3 uM incubated for 24 hrs in presence of bortezomib by Western blot analysis; assay type: cell-based
[6] = target: Myc proto-oncogene protein (Homo sapiens) (UniProt P01106); assay: Inhibition of c-Myc in human LY7 cells assessed as reduction in eIF4B expression at 3 uM incubated for 24 hrs in presence of bortezomib by Western blot analysis; assay type: cell-based
[7] = target: T2, Casein kinase I isoform epsilon (Homo sapiens, UniProt P49674); assay: Inhibition of recombinant human full-length N-terminal GST-tagged CK1epsilon expressed in baculovirus infected Sf9 insect cells at 50 uM using casein as substrate measured after 60 mins by ADP-glo kinase assay relative to control
Target sequence in this assay (P49674 whole entry, looked up, canonical isoform): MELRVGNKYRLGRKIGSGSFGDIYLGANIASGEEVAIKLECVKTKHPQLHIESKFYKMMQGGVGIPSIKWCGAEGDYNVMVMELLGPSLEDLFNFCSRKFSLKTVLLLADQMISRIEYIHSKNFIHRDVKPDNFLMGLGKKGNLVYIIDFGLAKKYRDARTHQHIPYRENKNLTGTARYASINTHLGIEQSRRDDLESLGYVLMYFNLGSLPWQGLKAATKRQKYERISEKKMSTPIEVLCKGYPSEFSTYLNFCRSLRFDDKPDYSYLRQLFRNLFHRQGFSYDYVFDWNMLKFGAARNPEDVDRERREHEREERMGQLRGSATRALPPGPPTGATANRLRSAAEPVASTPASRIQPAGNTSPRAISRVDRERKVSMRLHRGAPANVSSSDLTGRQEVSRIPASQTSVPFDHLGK

[8] = target: T2, Casein kinase I isoform epsilon; assay: Inhibition of CK1epsilon in human LY7 cells assessed as reduction in CK1epsilon autophosphorylation at 25 uM preincubated for 1 hr followed by addition of PP2A inhibitor calyculin A and measured after 15 to 60 mins by Western blot analysis; assay type: cell-based; details: time lower 75.0 min, time upper […]
Target sequence in this assay (P49674 whole entry, looked up, canonical isoform): as above

[9] = target: T1, mTORC1 (Homo sapiens); assay: Inhibition of mTORC1 in human NCI-H929 cells assessed as reduction in 4E-BP1 phosphorylation at 5 uM measured after 24 hrs by Western blot analysis; assay type: cell-based
[10] = target: T1, mTORC1 (Homo sapiens); assay: Inhibition of mTORC1 in human NCI-H929 cells assessed as reduction in c-Myc expression at 5 uM measured after 24 hrs in presence of carfilzomib by Western blot analysis; assay type: cell-based
[11] = target: T1, mTORC1 (Homo sapiens); assay: Inhibition of mTORC1 in human PF-382 cells assessed as reduction in c-Myc expression at 5 uM measured after 24 hrs in presence of carfilzomib by Western blot analysis; assay type: cell-based
[12] = target: T1, mTORC1 (Homo sapiens); assay: Inhibition of mTORC1 in human SLL cells assessed as reduction in 4E-BP1 phosphorylation at 5 uM measured after 24 hrs in presence of carfilzomib by Western blot analysis; assay type: cell-based
[13] = target: T3, Phosphatidylinositol 4,5-bisphosphate 3-kinase catalytic subunit delta isoform (Homo sapiens) (UniProt O00329); assay: Inhibition of PI3Kdelta in human MOLT-4 cells assessed as reduction in AKT phosphorylation at S473 residue measured after 4 hrs; assay type: cell-based; details: dose 10-10000 nM
T3 sequence (whole entry): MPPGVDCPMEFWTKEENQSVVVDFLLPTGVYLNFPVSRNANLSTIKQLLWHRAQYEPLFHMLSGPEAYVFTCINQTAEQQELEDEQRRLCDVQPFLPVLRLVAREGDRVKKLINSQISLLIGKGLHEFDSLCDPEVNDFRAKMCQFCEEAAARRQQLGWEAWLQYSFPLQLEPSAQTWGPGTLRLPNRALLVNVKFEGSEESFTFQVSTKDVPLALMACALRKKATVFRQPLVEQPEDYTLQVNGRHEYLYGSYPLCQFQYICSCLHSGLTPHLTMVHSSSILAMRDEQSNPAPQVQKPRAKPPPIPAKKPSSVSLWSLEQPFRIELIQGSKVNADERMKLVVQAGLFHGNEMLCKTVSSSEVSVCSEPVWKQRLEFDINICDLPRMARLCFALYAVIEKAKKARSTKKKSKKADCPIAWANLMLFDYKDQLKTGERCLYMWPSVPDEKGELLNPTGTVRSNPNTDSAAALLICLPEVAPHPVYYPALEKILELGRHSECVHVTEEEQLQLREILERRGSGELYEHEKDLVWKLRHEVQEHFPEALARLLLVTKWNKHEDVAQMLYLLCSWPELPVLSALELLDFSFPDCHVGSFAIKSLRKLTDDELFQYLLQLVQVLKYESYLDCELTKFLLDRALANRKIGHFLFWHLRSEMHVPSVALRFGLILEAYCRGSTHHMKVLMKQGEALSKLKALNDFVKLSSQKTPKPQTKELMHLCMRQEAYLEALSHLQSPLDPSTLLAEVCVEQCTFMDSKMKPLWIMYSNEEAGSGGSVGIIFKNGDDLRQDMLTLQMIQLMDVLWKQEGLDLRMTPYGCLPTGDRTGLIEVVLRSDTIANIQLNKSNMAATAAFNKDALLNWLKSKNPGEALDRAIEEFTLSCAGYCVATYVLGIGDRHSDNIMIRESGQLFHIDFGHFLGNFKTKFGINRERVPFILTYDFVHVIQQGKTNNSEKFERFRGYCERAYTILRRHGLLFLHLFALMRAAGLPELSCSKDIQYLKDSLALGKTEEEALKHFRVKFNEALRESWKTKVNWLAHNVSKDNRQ

[14] = tested on: OCI-Ly7; assay: Cytotoxicity against human OCILY7 cells transfected with empty vector assessed as reduction in cell viability at 3 to 5 uM incubated for 24 hrs in presence of carfilzomib by cell-titer glo assay; assay type: functional, cell-based; details: dose 3-5 µM
[15] = target: T1, mTORC1 (Homo sapiens); assay: Inhibition of mTORC1 in human NCI-H929 cells transduced with an eIF4E-overexpressing plasmid assessed as reduction in eIF4E expression at 5 uM incubated for 24 hrs in presence of carfilzomib by Western blot analysis; assay type: cell-based
[16] = target: T1, mTORC1 (Homo sapiens); assay: Inhibition of mTORC1 in human NCI-H929 cells transduced with an eIF4E-overexpressing plasmid assessed as reduction in c-Myc expression at 5 uM incubated for 24 hrs in presence of carfilzomib by Western blot analysis; assay type: cell-based
[17] = target: Myc proto-oncogene protein (Homo sapiens) (UniProt P01106); assay: Inhibition of c-Myc in human LY10 cells assessed as reduction in eIF4B expression at 3 uM incubated for 24 hrs in presence of carfilzomib by Western blot analysis; assay type: cell-based
[18] = target: T2, Casein kinase I isoform epsilon; assay: Inhibition of recombinant human full-length N-terminal GST-tagged CK1epsilon expressed in baculovirus infected Sf9 insect cells using casein as substrate measured after 60 mins by ADP-glo kinase assay
Target sequence in this assay (P49674 whole entry, canonical isoform): as the sequence (P49674 whole entry, looked up, canonical isoform) above

[19] = tested on: OCILY7; assay: Inhibition of PI3Kdelta/CK1epsilon in human OCILY7 cells transfected with an empty vector assessed as reduction in c-Myc expression at 7.5 to 25 uM measured after 24 hrs by Western blot analysis; assay type: cell-based; details: dose 7.5-25 µM
[20] = Inhibition of PI3Kdelta/CK1epsilon in human OCILY7 cells transfected with c-myc-5'-UTR-luciferase construct assessed as reduction in c-myc translation at 15 uM incubated for 24 hrs by luciferase reporter gene assay relative to control; details: OCI-Ly7
[21] = tested on: LY7; assay: Inhibition of PI3Kdelta/CK1epsilon in human LY7 cells assessed as reduction in c-Myc expression at 25 uM incubated for 24 hrs by Western blot analysis; assay type: cell-based

T1 sequence (Q8N122 whole entry, looked up, other chains not shown): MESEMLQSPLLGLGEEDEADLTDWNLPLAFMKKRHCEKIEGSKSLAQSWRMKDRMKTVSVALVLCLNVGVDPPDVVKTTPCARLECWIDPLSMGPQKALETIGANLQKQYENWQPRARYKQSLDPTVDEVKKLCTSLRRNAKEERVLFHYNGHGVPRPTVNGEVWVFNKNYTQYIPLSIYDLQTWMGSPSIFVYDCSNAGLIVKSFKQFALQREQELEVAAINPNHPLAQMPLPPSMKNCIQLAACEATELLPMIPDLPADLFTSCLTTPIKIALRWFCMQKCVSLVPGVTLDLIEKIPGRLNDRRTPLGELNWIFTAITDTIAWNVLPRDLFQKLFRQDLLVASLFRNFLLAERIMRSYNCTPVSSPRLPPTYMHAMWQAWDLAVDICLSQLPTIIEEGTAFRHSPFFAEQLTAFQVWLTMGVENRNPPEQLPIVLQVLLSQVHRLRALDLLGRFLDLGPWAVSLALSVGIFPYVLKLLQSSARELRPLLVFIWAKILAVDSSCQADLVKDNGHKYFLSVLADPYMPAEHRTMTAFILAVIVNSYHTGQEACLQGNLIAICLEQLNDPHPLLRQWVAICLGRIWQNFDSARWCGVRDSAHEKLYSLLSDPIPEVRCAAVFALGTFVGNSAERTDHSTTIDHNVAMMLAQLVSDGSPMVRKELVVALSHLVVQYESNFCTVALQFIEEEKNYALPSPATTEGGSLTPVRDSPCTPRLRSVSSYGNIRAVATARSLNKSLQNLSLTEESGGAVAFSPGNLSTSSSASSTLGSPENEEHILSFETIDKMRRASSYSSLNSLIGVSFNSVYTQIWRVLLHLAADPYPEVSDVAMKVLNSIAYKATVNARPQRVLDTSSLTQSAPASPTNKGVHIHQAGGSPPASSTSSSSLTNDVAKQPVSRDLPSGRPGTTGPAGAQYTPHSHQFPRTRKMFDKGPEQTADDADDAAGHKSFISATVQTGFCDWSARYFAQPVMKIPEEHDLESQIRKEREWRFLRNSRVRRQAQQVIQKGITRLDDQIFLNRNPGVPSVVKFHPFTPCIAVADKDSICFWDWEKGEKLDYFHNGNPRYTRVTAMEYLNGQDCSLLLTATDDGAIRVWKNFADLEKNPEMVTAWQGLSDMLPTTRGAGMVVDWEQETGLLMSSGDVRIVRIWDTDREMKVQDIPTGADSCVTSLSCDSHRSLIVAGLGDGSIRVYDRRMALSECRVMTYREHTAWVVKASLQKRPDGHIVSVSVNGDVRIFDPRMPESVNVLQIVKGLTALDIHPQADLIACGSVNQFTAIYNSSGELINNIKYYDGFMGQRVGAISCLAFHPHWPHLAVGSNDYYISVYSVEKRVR
T1 sequence (Q9BVC4 whole entry, looked up, other chains not shown): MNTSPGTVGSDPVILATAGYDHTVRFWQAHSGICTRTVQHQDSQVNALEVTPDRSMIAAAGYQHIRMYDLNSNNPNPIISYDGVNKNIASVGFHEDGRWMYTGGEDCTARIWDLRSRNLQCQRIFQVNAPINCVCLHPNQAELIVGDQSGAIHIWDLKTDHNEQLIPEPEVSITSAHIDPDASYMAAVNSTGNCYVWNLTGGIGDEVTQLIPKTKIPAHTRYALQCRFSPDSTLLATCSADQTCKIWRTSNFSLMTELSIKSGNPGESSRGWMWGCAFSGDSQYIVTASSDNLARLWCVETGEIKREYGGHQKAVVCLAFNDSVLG
Myc proto-oncogene protein (Homo sapiens), sequence (P01106 whole entry, canonical isoform): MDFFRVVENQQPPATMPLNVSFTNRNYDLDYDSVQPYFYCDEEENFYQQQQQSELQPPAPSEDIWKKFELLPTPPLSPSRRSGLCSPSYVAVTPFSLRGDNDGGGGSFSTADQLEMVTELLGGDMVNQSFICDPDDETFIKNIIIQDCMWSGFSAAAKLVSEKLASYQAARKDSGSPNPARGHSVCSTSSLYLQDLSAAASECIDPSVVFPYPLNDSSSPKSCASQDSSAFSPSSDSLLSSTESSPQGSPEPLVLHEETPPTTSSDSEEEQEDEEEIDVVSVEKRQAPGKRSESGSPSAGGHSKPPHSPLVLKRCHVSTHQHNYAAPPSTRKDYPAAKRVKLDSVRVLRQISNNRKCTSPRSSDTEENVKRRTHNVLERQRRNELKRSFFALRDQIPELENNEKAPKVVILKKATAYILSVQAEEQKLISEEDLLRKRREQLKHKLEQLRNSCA

## CC[C@H](Nc1ncnc2[nH]cnc12)c1nc2cccc(F)c2c(=O)n1-c1ccccc1
[1]
  inhibition: inactive
[2]
  inhibition: inactive
[3]
  inhibition: inactive
[4]
  Activity: Active
[5]
  inhibition: inactive
[6]
  inhibition: inactive
[7]
  inhibition: < 50%
[8]
  inhibition: inactive

## CC(C)Oc1ccc(-c2nn([C@@H](C)c3oc4ccc(F)cc4c(=O)c3-c3cccc(F)c3)c3ncnc(N)c23)cc1F [UMBRALISIB]
[9]
  inhibition: inactive
[10]
  inhibition: Active
[11]
  inhibition: Active
[12]
  inhibition: Active
[13]
  inhibition: Dose-Dependent Effect
[14]
  Activity: Active
[15]
  inhibition: inactive
[16]
  inhibition: inactive
[17]
  inhibition: Active
[18]
  EC50: 6 µM
[19]
  inhibition: Active
[20]
  inhibition at 15 µM: > 50%
[21]
  inhibition: Active
